In patent publication US20230278972A1, “SUBSTITUTED HALOALKYL SULFONANILIDE HERBICIDES” (FMC Corporation, priority 2020, published 2023):

Legend:
Assay type in all cases: in vivo
[1] = tested on: Ryegrass, Italian (Italian ryegrass, Lolium multiflorum); assay: Test A postemergence, Ryegrass, Italian; details: Postemergence, 0 to 100 scale (0 no effect, 100 complete control); for Plant response rating, Ryegrass, Italian: 125 g ai/ha; for Ryegrass, Italian plant response rating: 500 g ai/ha, visual injury vs untreated controls after approx. 10 days
Method in brief: (§1)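 Seeds are sown in loam mixed with sand and sprayed on the soil surface right after planting for the preemergence test. Postemergence pots are sprayed once seedlings reach 2 to 10 cm at the one- to two-leaf stage. The same surfactant-containing, non-phytotoxic solvent formulation serves both.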

[2] = tested on: galium (catchweed bedstraw, Galium aparine); assay: Test A postemergence, galium; details: Postemergence, 0 to 100 scale (0 no effect, 100 complete control); for Plant response rating, Galium: 125 g ai/ha; for Galium plant response rating: 500 g ai/ha, visual injury vs untreated controls after approx. 10 days
Method in brief: (§2)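 Greenhouse pot test in a loam–sand blend; compounds delivered in a non-phytotoxic solvent carrying a surfactant, applied either as a directed spray to soil at seeding or over seedlings 2 to 10 cm high with one to two leaves.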

[3] = tested on: Ryegrass, Italian (Italian ryegrass, Lolium multiflorum); assay: Test A preemergence, Ryegrass, Italian; details: Preemergence; for Plant response rating, Ryegrass, Italian: 0 to 100 scale (0 no effect, 100 complete control)
Method in brief: as §1

[4] = tested on: wheat (Triticum aestivum); assay: Test A postemergence, wheat; details: Postemergence, 0 to 100 scale (0 no effect, 100 complete control); for Plant response rating, Wheat: 125 g ai/ha; for Wheat plant response rating: 500 g ai/ha, visual injury vs untreated controls after approx. 10 days
Method in brief: as §2

[5] = tested on: barnyardgrass (Echinochloa crus-galli); assay: Test A preemergence, barnyardgrass; details: Preemergence; for Plant response rating, Barnyardgrass: 0 to 100 scale (0 no effect, 100 complete control)
Method in brief: as §1

corn (Zea mays) = assay: Test A postemergence, corn; details: Postemergence, 0 to 100 scale (0 no effect, 100 complete control); for Plant response rating, Corn: 125 g ai/ha; for Corn plant response rating: 500 g ai/ha, visual injury vs untreated controls after approx. 10 days
Method in brief: as §1

[6] = tested on: ragweed (common ragweed, Ambrosia artemisiifolia); assay: Test A postemergence, ragweed; details: Postemergence, 0 to 100 scale (0 no effect, 100 complete control); for Plant response rating, Ragweed: 125 g ai/ha; for Ragweed plant response rating: 500 g ai/ha, visual injury vs untreated controls after approx. 10 days
Method in brief: as §1

[7] = tested on: barnyardgrass (Echinochloa crus-galli); assay: Test A postemergence, barnyardgrass; details: Postemergence, 0 to 100 scale (0 no effect, 100 complete control); for Plant response rating, Barnyardgrass: 125 g ai/ha; for Barnyardgrass plant response rating: 500 g ai/ha, visual injury vs untreated controls after approx. 10 days
Method in brief: as §2

[8] = tested on: Foxtail, Giant (giant foxtail, Setaria faberi); assay: Test A postemergence, Foxtail, Giant; details: Postemergence, 0 to 100 scale (0 no effect, 100 complete control); for Plant response rating, Foxtail, Giant: 125 g ai/ha; for Foxtail, Giant plant response rating: 500 g ai/ha, visual injury vs untreated controls after approx. 10 days
Method in brief: as §1

[9] = tested on: ragweed (common ragweed, Ambrosia artemisiifolia); assay: Test A preemergence, ragweed; details: Preemergence; for Plant response rating, Ragweed: 0 to 100 scale (0 no effect, 100 complete control)
Method in brief: as §1

kochia (Bassia scoparia) [10] = assay: Test A preemergence, kochia; details: Preemergence; for Plant response rating, Kochia: 0 to 100 scale (0 no effect, 100 complete control)
Method in brief: as §1

[11] = tested on: pigweed (Amaranthus retroflexus); assay: Test A preemergence, pigweed; details: for Plant response rating, Pigweed: 0 to 100 scale (0 no effect, 100 complete control)
Method in brief: as §2

kochia (Bassia scoparia) [12] = assay: Test A postemergence, kochia; details: Postemergence, 0 to 100 scale (0 no effect, 100 complete control); for Plant response rating, Kochia: 125 g ai/ha; for Kochia plant response rating: 500 g ai/ha, visual injury vs untreated controls after approx. 10 days
Method in brief: as §1

[13] = tested on: pigweed (Amaranthus retroflexus); assay: Test A postemergence, pigweed; details: Postemergence, 0 to 100 scale (0 no effect, 100 complete control); for Plant response rating, Pigweed: 125 g ai/ha; for Pigweed plant response rating: 500 g ai/ha, visual injury vs untreated controls after approx. 10 days
Method in brief: as §1

[14] = tested on: blackgrass (Alopecurus myosuroides); assay: Test A postemergence, blackgrass; details: Postemergence, 0 to 100 scale (0 no effect, 100 complete control); for Plant response rating, Blackgrass: 125 g ai/ha; for Blackgrass plant response rating: 500 g ai/ha, visual injury vs untreated controls after approx. 10 days
Method in brief: as §1

[15] = tested on: Foxtail, Giant (giant foxtail, Setaria faberi); assay: Test A preemergence, Foxtail, Giant; details: Preemergence; for Plant response rating, Foxtail, Giant: 0 to 100 scale (0 no effect, 100 complete control)
Method in brief: as §1

[16] = 125 g ai/ha, visual injury on 0 to 100 scale (0 no effect, 100 complete control), approximately 10 days
[17] = 125 g ai/ha, visual injury, approx. 10 days

Row | Compound | Plant response rating, Ryegrass, Italian [1] | Ryegrass, Italian plant response rating [1] | Plant response rating, Galium [2] | Galium plant response rating [2] | Plant response rating, Ryegrass, Italian ([3]; 500 g ai/ha) | Plant response rating, Wheat [4] | Wheat plant response rating [4] | Plant response rating, Barnyardgrass ([5]; 500 g ai/ha) | Plant response rating, Corn (corn (Zea mays)) | Corn plant response rating (corn (Zea mays)) | Plant response rating, Ragweed [6] | Ragweed plant response rating [6] | Plant response rating, Barnyardgrass [7] | Barnyardgrass plant response rating [7] | Plant response rating, Foxtail, Giant [8] | Foxtail, Giant plant response rating [8] | Plant response rating, Ragweed ([9]; 500 g ai/ha) | Plant response rating, Kochia (kochia (Bassia scoparia) [10]; 500 g ai/ha) | Plant response rating, Pigweed ([11]; 500 g ai/ha) | Plant response rating, Kochia (kochia (Bassia scoparia) [12]) | further results
1 | Cc1cc(Cl)c(C2=NOC(C)(C)C2)cc1NS(=O)(=O)C(F)(F)F [Compound 183] | 0 | 0 | 70 | 90 | 100 | 0 | 0 | 100 | 0 | 30 | 60 | 80 | 20 | 70 | 0 | 10 | 90 | 60 | 80 | 10 | Ryegrass, Italian plant response rating [3, 16]: 70; Barnyardgrass plant response rating [5, 16]: 90; Ragweed plant response rating [9, 16]: 20; Kochia plant response rating (kochia (Bassia scoparia) [10]; [16]): 20; Pigweed plant response rating [11, 16]: 70; Kochia plant response rating (kochia (Bassia scoparia) [12]): 50; Plant response rating, Pigweed [13]: 30; Pigweed plant response rating [13]: 30; Plant response rating, Blackgrass [14]: 10; Blackgrass plant response rating [14]: 10; Foxtail, Giant plant response rating [15, 16]: 50; Plant response rating, Foxtail, Giant ([15]; 500 g ai/ha): 70
2 | Cc1cc(F)c(C(=O)N2CCCCC2)cc1NS(=O)(=O)C(F)(F)F [Compound 211] | 40 | 30 | 60 | 70 | 70 | 0 | 0 | 90 | 0 | 0 | 30 | 60 | 0 | 30 | 0 | 50 | 80 | 90 | 90 | 10 | Plant response rating, Ryegrass, Italian [3, 17]: 50; Plant response rating, Barnyardgrass [5, 17]: 60; Plant response rating, Ragweed [9, 17]: 30; Plant response rating, Kochia (kochia (Bassia scoparia) [10]; [17]): 80; Plant response rating, Pigweed [11, 17]: 20; Kochia plant response rating (kochia (Bassia scoparia) [12]): 50; Plant response rating, Pigweed [13]: 40; Pigweed plant response rating [13]: 60; Plant response rating, Blackgrass [14]: 0; Blackgrass plant response rating [14]: 0; Plant response rating, Foxtail, Giant [15, 17]: 60; Plant response rating, Foxtail, Giant ([15]; 500 g ai/ha): 90
3 | Cc1cc(Cl)c(N(S(=O)(=O)C(F)(F)F)S(=O)(=O)C(F)(F)F)cc1C1=NOC(C)(C)C1 [Compound 222] | 0 | 0 | 90 | 90 | 80 | 0 | 70 | 90 | 0 | 0 | 50 | 90 | 10 | 70 | 0 | 10 | 90 | 40 | 100 | 10 | Plant response rating, Ryegrass, Italian [3, 17]: 30; Plant response rating, Ragweed [9, 17]: 60; Plant response rating, Kochia (kochia (Bassia scoparia) [10]; [17]): 0; Plant response rating, Pigweed [11, 17]: 50; Kochia plant response rating (kochia (Bassia scoparia) [12]): 50; Plant response rating, Pigweed [13]: 20; Pigweed plant response rating [13]: 40; Plant response rating, Blackgrass [14]: 20; Blackgrass plant response rating [14]: 20; Plant response rating, Foxtail, Giant [15, 17]: 40; Plant response rating, Foxtail, Giant ([15]; 500 g ai/ha): 50
